US4839358A, “Alpha-mercaptomethyl-benzene propanamides, pharmaceutical compositions and use” (Roussel Uclaf, priority 1987, dated 1989)

Tests used:
[1] = Analgesic activity: Stretching Caused by Acetic Acid in Mice; type: in vivo; details: Mus musculus, 0.5 h; oral, half-an-hour before 1% acetic acid 10 ml/kg intraperitoneal; 15 minutes observation; read-out: AD50 (active dose which enabled a reduction of 50% of the number of stretchings as compared with control animals)
Method: The test used was based on the fact reported by R. KOSTER et al [Fed. Proc. (1959), Vol. 18, p. 412] in which the intraperitoneal injection of acetic acid caused in mice repeated stretching and twisting movements which can persist for more than 6 hours. The analgesics prevent or diminish this syndrome which can be considered as the exteriorization of a diffuse abdominal pain. A 1% solution of acetic acid in water was used, administered at a rate of 10 ml/kg. The product studied was administered by oral route half-an-hour before injection of the acetic acid, the mice being without food for a minimum 6 hours. The stretchings were observed and counted for each mouse for an observation period of 15 minutes. The results were expressed as the AD50, that is to say, the active dose which enabled a reduction of 50% of the number of stretchings as compared with control animals. The AD50 found for the compound of Example 2 was 80 mg/kg.

[2] = biological target: T1, Enkephalinase (Rattus norvegicus, UniProt P07861); assay: Determination of the Inhibiting Effect of Enkephalinase (hydrolysis of succinyl-Ala-Ala-Phe-amino-methylcoumarine, fluorescence); type: biochemical; details: rat renal membrane; substrate 40 μM; pH 7.5; 37° C., 30 minutes; read-out: IC50 (concentration which inhibits the hydrolysis of the substrate by 50%)
T1 construct: from tissue; host or cells: rat kidney membranes (15,000 g particulate fraction, solubilised with octyl beta-D-glucopyranoside, 100,000 g supernatant)
T1 sequence (P07861 1-750): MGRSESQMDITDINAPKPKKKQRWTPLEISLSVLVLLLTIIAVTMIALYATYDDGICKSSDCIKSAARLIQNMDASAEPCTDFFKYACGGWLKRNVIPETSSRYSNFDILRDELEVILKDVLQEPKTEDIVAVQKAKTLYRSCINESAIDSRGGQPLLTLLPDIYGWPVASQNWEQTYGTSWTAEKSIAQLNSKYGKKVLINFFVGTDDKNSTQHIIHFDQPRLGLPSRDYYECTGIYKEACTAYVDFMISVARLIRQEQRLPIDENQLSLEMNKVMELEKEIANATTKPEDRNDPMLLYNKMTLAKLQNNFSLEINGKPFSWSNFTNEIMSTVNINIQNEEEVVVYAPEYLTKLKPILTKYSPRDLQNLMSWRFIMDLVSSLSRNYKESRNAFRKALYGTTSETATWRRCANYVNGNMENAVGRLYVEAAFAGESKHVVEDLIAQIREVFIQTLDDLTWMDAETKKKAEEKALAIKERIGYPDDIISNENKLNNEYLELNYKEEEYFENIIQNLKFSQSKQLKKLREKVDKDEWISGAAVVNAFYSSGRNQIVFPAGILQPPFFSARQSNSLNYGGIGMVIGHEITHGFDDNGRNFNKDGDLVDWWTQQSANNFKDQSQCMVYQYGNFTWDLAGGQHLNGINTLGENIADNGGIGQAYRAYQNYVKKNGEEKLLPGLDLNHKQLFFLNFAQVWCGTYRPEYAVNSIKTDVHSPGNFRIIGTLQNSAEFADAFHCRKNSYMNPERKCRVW
Method: The activity of enkephalinase was determined starting with a piece of renal membrane of a rat. The kidneys were removed on ice and homogenized in HEPES 0.05M buffer pH 7.5 containing magnesium chloride (50 times the volume). After a first centrifuging at 1,500 g, the particular fraction was obtained after centrifuging at 15,000 g for 20 minutes. The residue was then washed and suspended in HEPES buffer and kept at -20 C. A part of this membrane preparation was placed in the presence of octyl β-D-glucopyranoside (50 mM in final centrifuging) for 15 minutes 15 4° C. After centrifuging at 100,000 g for one hour, the supernatant was removed and frozen by aliquots at -20° C. The concentration in proteins was determined by the method with Comassie blue.
An aliquot of the protein fraction so prepared was pre-incubated at 25° C. for 10 minutes in HEPES 0.05M buffer pH 7.5 or in the presence of the test product. The substrate added was a non-natural enkephaline of the formula succinyl-Ala-Ala-Phe-amino-methylcoumarine (reference 1) (40 μM in final concentration): the incubation was continued at 37° C. for 30 minutes. The reaction was stopped by heating to 95° C. for 5 minutes and each incubate was centrifuged. A solution of aminopeptidase M (4 μM in final concentration) and of thiorphan (reference 2) (10^-5 M) was added to the supernatant and the mixture was taken to 37° C. for one hour. The reaction was stopped as previously described and the fluorescence of the 7-aminomethylcoumarineso produced was determined. The effect of the products under test was detemined by calculating the IC50 as the concentration which inhibits the hydrolysis of the substrate by 50%.

[3] = Test of Anti-depressive Activity (duration of immobility, forced swimming); type: in vivo, Sprague Dawley rats; details: 20 mg/kg × 3, oral 24, 5 and 1 hour before test
Method: The tests were carried out on groups of 5 Sprague Dawley rats and the inexperienced animals were placed for 15 minutes in a vertical perspex cylinder (diameter: 18 cm, height: 40 cm) containing water at 25° C. to a height of 15 cm (initial swimming test). They were then dried for 15 minutes in an enclosure heated to 32° C. 24 hours later, they were replaced in the cylinder filled with water and the total duration of immobility was measured for 5 minutes. The compound was administered orally successively 24, 5 and 1 hour before the test. The first administration took place immediately after the initial swimming test, just before replacing the animals in their breeding box. The average of the groups treated were compared with those of the control group by the Dunnett test.

| IC50 [2] [nM] | Compound | ED50 [1] [mg/kg] | Duration of immobility ([3]; 5 minutes measured, control 232 ± 7) [s] | Duration of immobility, % variation ([3]; versus control group) [%] |
| --- | --- | --- | --- | --- |
| 220 | O=C(NN1CCOCC1)C(CS)Cc1ccccc1 (stereo not drawn) [Example 2, α-mercaptomethyl-N-(4-morpholinyl)-benzene propanamide] | 80 | 138 ± 20 | -41 |
| 390 | O=C(NN1CCCCCC1)C(CS)Cc1ccccc1 (stereo not drawn) [Example 8, N-(hexahydro-1H-azepinyl)-α-(mercaptomethyl)-benzene propanamide] |  |  |  |
| 71 | O=C(NN1CCCC1)C(CS)Cc1ccccc1 (stereo not drawn) [Example 10, α-mercaptomethyl-N-(1-pyrrolidinyl)-benzene propanamide] |  |  |  |
| 350 | O=C(NN1CCSCC1)C(CS)Cc1ccccc1 (stereo not drawn) [Example 12, α-mercaptomethyl-N-(tetrahydro-2H-1,4,-thiazin-4-yl)-benzene propanamide] |  |  |  |
